Assay results published in PubChem BioAssay AID248 (DTP/NCI, 2004).
“And” between values parts separate entries of the source, which are not always exact repeats. Equal entries are not always repeated. Inconclusive results and toxic doses are left out. No stated cut-off is given here; in the data, active means T/C of 150% or more; inactive means T/C below 125%.

Test system: L1210 leukemia ip in BDF1 mice, survival T/C
Experiment: NCI In Vivo Anticancer Drug Screen. Data for tumor model L1210 Leukemia (intraperitoneal) in B6D2F1 (BDF1) mice
Details: endpoint: mean survival time, higher = longer survival
Summary of the method: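 Tumor cells were implanted, animals were treated, and survival was followed. The result divides the treated measurement by the vehicle-control measurement.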

[1] = dose: 100.0 mg/kg/injection, schedule: Q01DX001 (ip), vehicle: Klucel (hydroxypropylcellulose) (HPC)
[2] = dose: 200.0 mg/kg/injection, schedule: Q01DX001 (ip), vehicle: Klucel (hydroxypropylcellulose) (HPC)
[3] = dose: 100.0 mg/kg/injection, schedule: Q01DX001 (ip), vehicle: saline with Tween-80
[4] = dose: 200.0 mg/kg/injection, schedule: Q01DX001 (ip), vehicle: saline with Tween-80
[5] = dose: 400.0 mg/kg/injection, schedule: Q01DX001 (ip), vehicle: saline with Tween-80
[6] = dose: 100.0 mg/kg/injection, schedule: Q01DX009 (ip), vehicle: saline with Tween-80
[7] = dose: 50.0 mg/kg/injection, schedule: Q04DX003 (ip), vehicle: saline
[8] = dose: 100.0 mg/kg/injection, schedule: Q04DX003 (ip), vehicle: saline
[9] = dose: 200.0 mg/kg/injection, schedule: Q04DX003 (ip), vehicle: saline
[10] = dose: 400.0 mg/kg/injection, schedule: Q04DX003 (ip), vehicle: saline

Measured: T/C

O=C(Cc1cccc2ccccc12)OCCOCCCl
inactive: dose: 100.0 mg/kg/injection, schedule: Q04DX002 (ip), vehicle: saline with Tween-80 101 % of control | dose: 200.0 mg/kg/injection, schedule: Q04DX002 (ip), vehicle: saline with Tween-80 104 % of control | dose: 400.0 mg/kg/injection, schedule: Q04DX002 (ip), vehicle: saline with Tween-80 117 % of control

CCOC(=O)c1ccc(N=NN(C)CC(C)C)cc1
inactive: [1] 107 % of control | dose: 100.0 mg/kg/injection, schedule: Q01DX009 (ip), vehicle: Klucel (hydroxypropylcellulose) (HPC) 112 % of control | dose: 100.0 mg/kg/injection, schedule: Q04DX003 (ip), vehicle: Klucel (hydroxypropylcellulose) (HPC) 105 % of control | [2] 104 % of control | dose: 200.0 mg/kg/injection, schedule: Q01DX009 (ip), vehicle: Klucel (hydroxypropylcellulose) (HPC) 122 % of control | dose: 200.0 mg/kg/injection, schedule: Q04DX003 (ip), vehicle: Klucel (hydroxypropylcellulose) (HPC) 107 % of control | dose: 400.0 mg/kg/injection, schedule: Q01DX001 (ip), vehicle: Klucel (hydroxypropylcellulose) (HPC) 107 % of control | dose: 400.0 mg/kg/injection, schedule: Q04DX003 (ip), vehicle: Klucel (hydroxypropylcellulose) (HPC) 108 % of control

CS(=O)(=O)OCCN(CCO)c1cn(C(c2ccccc2)(c2ccccc2)c2ccccc2)c(=O)n(C(c2ccccc2)(c2ccccc2)c2ccccc2)c1=O
inactive: dose: 50.0 mg/kg/injection, schedule: Q01DX001 (ip), vehicle: saline 94 % of control | dose: 100.0 mg/kg/injection, schedule: Q01DX001 (ip), vehicle: saline 105 % of control | dose: 200.0 mg/kg/injection, schedule: Q01DX001 (ip), vehicle: saline 97 % of control | dose: 400.0 mg/kg/injection, schedule: Q01DX001 (ip), vehicle: saline 103 % of control

NC1=C(Sc2ccccc2)C(=O)c2ccccc2C1=O
inactive: [3] 105 % of control | [4] 94 % of control | [5] 94 % of control

O=C(NS(=O)(=O)c1ccc(Cl)cc1)c1ccccc1
inactive: [6] 94 % of control | dose: 100.0 mg/kg/injection, schedule: Q04DX003 (ip), vehicle: acetone 104 % of control | dose: 200.0 mg/kg/injection, schedule: Q04DX003 (ip), vehicle: acetone 107 % of control | dose: 400.0 mg/kg/injection, schedule: Q04DX003 (ip), vehicle: acetone 93 % of control

CC(=O)c1sc2sc(C(C)=O)c(NC(=S)Nc3cccc(C(F)(F)F)c3)c2c1NC(=S)Nc1cccc(C(F)(F)F)c1
inactive: dose: 50.0 mg/kg/injection, schedule: Q04DX002 (ip), vehicle: saline with Tween-80 98 % of control and 99 % of control | [3] 96 % of control | [6] 96 % of control and 89 % of control | dose: 100.0 mg/kg/injection, schedule: Q04DX003 (ip), vehicle: saline with Tween-80 93 % of control | [4] 92 % of control | dose: 200.0 mg/kg/injection, schedule: Q01DX009 (ip), vehicle: saline with Tween-80 101 % of control and 86 % of control | dose: 200.0 mg/kg/injection, schedule: Q04DX003 (ip), vehicle: saline with Tween-80 90 % of control | [5] 100 % of control | dose: 400.0 mg/kg/injection, schedule: Q01DX009 (ip), vehicle: saline with Tween-80 96 % of control and 91 % of control

OC1C=CC2C3C=CC(C3)C12 (stereo unspecified)
inactive: dose: 50.0 mg/kg/injection, schedule: Q01DX009 (ip), vehicle: saline 102 % of control | [7] 102 % of control | dose: 100.0 mg/kg/injection, schedule: Q01DX009 (ip), vehicle: saline 104 % of control | [8] 103 % of control | dose: 200.0 mg/kg/injection, schedule: Q01DX009 (ip), vehicle: saline 95 % of control | [9] 94 % of control | dose: 400.0 mg/kg/injection, schedule: Q01DX009 (ip), vehicle: saline 95 % of control | [10] 91 % of control

CCC1(CC)NC(=O)N(CCO)C1=O
inactive: [7] 110 % of control | [8] 95 % of control | [9] 106 % of control | [10] 105 % of control

O=C1NC(=O)C2C3C=CC(C3)C12 (stereo unspecified)
inactive: dose: 50.0 mg/kg/injection, schedule: Q01DX001 (ip), vehicle: Klucel (hydroxypropylcellulose) (HPC) 101 % of control | [1] 99 % of control | [2] 101 % of control
